# Measurements taken from patent publication US9169254B2, “Spiroimidazolone derivative” (Chugai Seiyaku Kabushiki Kaisha, priority 2009, dated 2015).
# Target: T1, human PTH1 receptor (Homo sapiens, UniProt Q03431)
# T1 sequence (Q03431 27-593): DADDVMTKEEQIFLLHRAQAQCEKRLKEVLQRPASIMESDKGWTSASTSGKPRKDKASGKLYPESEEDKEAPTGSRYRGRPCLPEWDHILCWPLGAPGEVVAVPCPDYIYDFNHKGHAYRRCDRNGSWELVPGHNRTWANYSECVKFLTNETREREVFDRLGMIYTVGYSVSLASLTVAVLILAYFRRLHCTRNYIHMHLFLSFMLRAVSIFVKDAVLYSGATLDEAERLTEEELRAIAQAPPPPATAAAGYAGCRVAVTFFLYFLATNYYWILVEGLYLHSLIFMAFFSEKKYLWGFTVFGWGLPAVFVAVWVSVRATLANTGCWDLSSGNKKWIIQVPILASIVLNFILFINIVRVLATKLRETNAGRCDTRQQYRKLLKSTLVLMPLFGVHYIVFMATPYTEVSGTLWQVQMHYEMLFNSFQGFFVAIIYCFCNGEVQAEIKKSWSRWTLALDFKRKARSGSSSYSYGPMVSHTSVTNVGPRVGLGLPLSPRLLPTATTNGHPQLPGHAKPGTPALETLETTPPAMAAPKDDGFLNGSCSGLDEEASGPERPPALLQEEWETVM
# Assay: In vitro cAMP signal activity in HKRK-B7 cells (LLC-PK1 cells overexpressing the human PTH1 receptor)
# Assay type: cell-based
# Conditions: HKRK-B7 cells; compound at 1×10^−3 M; […]; 0.1 µM
row,Compound,cAMP production activity (%)
1,"CC(=O)N1CCC(N(C(C)=O)c2ccc(/C=C/S(=O)(=O)N3CCC4(CC3)N=C(c3cccc(OC(F)(F)F)c3)NC4=O)c(C)c2)CC1 [Compound 1294, N-(1-Acetyl-piperidin-4-yl)-N-(3-methyl-4-{(E)-2-[4-oxo-2-(3-trifluoromethoxy-phenyl)-1,3,8-triaza-spiro[4.5]dec-1-ene-8-sulfonyl]-vinyl}-phenyl)-acetamide]",76%

# Same assay, conditions: HKRK-B7 cells; compound at 1×10^−3 M; cAMP produced as percentage of that produced by hPTH(1-34) at 100 nM
row,Compound,cAMP production activity (%)
1,"Cc1cc(CN)cc(C)c1/C=C/S(=O)(=O)N1CCC2(CC1)N=C(C1CCC(CCC(F)(F)F)CC1)NC2=O (stereo not drawn) [Compound 1290, 8-[(E)-2-(4-aminomethyl-2,6-dimethyl-phenyl)-ethenesulfonyl]-2-[4-(3,3,3-trifluoro-propyl)-cyclohexyl]-1,3,8-triaza-spiro[4.5]dec-1-en-4-one]",6.3%
2,"Cc1cc(CN)cc(C)c1/C=C/S(=O)(=O)N1CCC2(CC1)N=C(C1CCC(C)CC1)NC2=O (stereo not drawn) [Compound 1291, 8-[(E)-2-(4-aminomethyl-2,6-dimethyl-phenyl)-ethenesulfonyl]-2-(4-methyl-cyclohexyl)-1,3,8-triaza-spiro[4.5]dec-1-en-4-one]",48%
3,"CNCc1cc(C)c(/C=C/S(=O)(=O)N2CCC3(CC2)N=C(C2CCC(CCC(F)(F)F)CC2)NC3=O)c(C)c1 (stereo not drawn) [Compound 1292, 8-[(E)-2-(2,6-dimethyl-4-methylaminomethyl-phenyl)-ethenesulfonyl]-2-[4-(3,3,3-trifluoro-propyl)-cyclohexyl]-1,3,8-triaza-spiro[4.5]dec-1-en-4-one]",14%
4,"CC[C@H]1CC[C@H](C2=NC3(CCN(S(=O)(=O)CCc4ccc(N)c(Cl)c4C)CC3)C(=O)N2)CC1 [Compound 1293, 8-[2-(4-Amino-3-chloro-2-methyl-phenyl)-ethanesulfonyl]-2-(4-ethyl-cyclohexyl)-1,3,8-triaza-spiro[4.5]dec-1-en-4-one]",84%
5,"CC[C@H]1CC[C@H](C2=NC3(CCN(S(=O)(=O)CCc4ccc(NC5=NCCS5)cc4C)CC3)C(=O)N2)CC1 [Compound 1295, 8-{2-[4-(4,5-Dihydro-thiazol-2-ylamino)-2-methyl-phenyl]-ethanesulfonyl}-2-(4-ethyl-cyclohexyl)-1,3,8-triaza-spiro[4.5]dec-1-en-4-one]",73%
6,"CC(=O)Nc1ccc(CCS(=O)(=O)N2CCC3(CC2)N=C(C2CCC(CCCCF)CC2)NC3=O)c(C)c1 (stereo not drawn) [Compound 1296, N-[4-(2-{2-[4-(4-Fluoro-butyl)-cyclohexyl]-4-oxo-1,3,8-triaza-spiro[4.5]dec-1-ene-8-sulfonyl}-ethyl)-3-methyl-phenyl]-acetamide]",64%
7,"Cc1cc(N(C)C(N)=O)cc(C)c1CCS(=O)(=O)N1CCC2(CC1)N=C(C1CCCC(C)C1)NC2=O (stereo not drawn) [Compound 1297, 1-(3,5-Dimethyl-4-{2-[2-(3-methyl-cyclohexyl)-4-oxo-1,3,8-triaza-spiro[4.5]dec-1-ene-8-sulfonyl]-ethyl}-phenyl)-1-methyl-urea]",98%
8,"Cc1cc(N(C)C(N)=O)cc(C)c1CCS(=O)(=O)N1CCC2(CC1)N=C(C1CC(C)(C)CC(C)(C)C1)NC2=O [Compound 1298, 1-(3,5-Dimethyl-4-{2-[4-oxo-2-(3,3,5,5-tetramethyl-cyclohexyl)-1,3,8-triaza-spiro[4.5]dec-1-ene-8-sulfonyl]-ethyl}-phenyl)-1-methyl-urea]",117%
9,"Cc1cc(N2C(=O)NC(CO)C2=O)cc(C)c1CCS(=O)(=O)N1CCC2(CC1)N=C([C@H]1CC[C@H](C)CC1)NC2=O (stereo partly drawn) [Compound 1299, 3-(3,5-Dimethyl-4-{2-[2-(4-methyl-cyclohexyl)-4-oxo-1,3,8-triaza-spiro[4.5]dec-1-ene-8-sulfonyl]-ethyl}-phenyl)-5-hydroxymethyl-imidazolidine-2,4-dione]",87%
10,"Cc1cc(CN(C)C(N)=O)cc(C)c1/C=C/S(=O)(=O)N1CCC2(CC1)N=C(C1CCC(CCC(F)(F)F)CC1)NC2=O (stereo not drawn) [Compound 1300, 1-[3,5-Dimethyl-4-((E)-2-{4-oxo-2-[4-(3,3,3-trifluoro-propyl)-cyclohexyl]-1,3,8-triaza-spiro[4.5]dec-1-ene-8-sulfonyl}-vinyl)-benzyl]-1-methyl-urea]",81%
11,"Cc1cc(CN(C)C(N)=O)cc(C)c1/C=C/S(=O)(=O)N1CCC2(CC1)N=C(C1CCC(C)CC1)NC2=O (stereo not drawn) [Compound 1301, 1-(3,5-dimethyl-4-{(E)-2-[2-(4-methyl-cyclohexyl)-4-oxo-1,3,8-triaza-spiro[4.5]dec-1-ene-8-sulfonyl]-vinyl}-benzyl)-1-methyl-urea]",49%
12,"Cc1cc(N(C)C(N)=O)cc(C)c1CCS(=O)(=O)N1CCC2(CC1)N=C(CCCCCCCC(F)(F)C(F)(F)F)NC2=O [Compound 1302, 1-(3,5-dimethyl-4-{2-[4-oxo-2-(8,8,9,9,9-pentafluoro-nonyl)-1,3,8-triaza-spiro[4.5]dec-1-ene-8-sulfonyl]-ethyl}-phenyl)-1-methyl-urea]",95%
13,"Cc1cc(N(C)C(N)=O)cc(C)c1/C=C/S(=O)(=O)N1CCC2(CC1)N=C(CCCCCCCC(F)(F)C(F)(F)F)NC2=O [Compound 1303, 1-(3,5-dimethyl-4-{(E)-2-[4-oxo-2-(8,8,9,9,9-pentafluoro-nonyl)-1,3,8-triaza-spiro[4.5]dec-1-ene-8-sulfonyl]-vinyl}-phenyl)-1-methyl-urea]",102%
14,"Cc1cc(N(C)C(N)=O)cc(C)c1/C=C/S(=O)(=O)N1CCC2(CC1)N=C(CCCCCCCCC(F)(F)F)NC2=O [Compound 1304, 1-(3,5-dimethyl-4-{(E)-2-[4-oxo-2-(9,9,9-trifluoro-nonyl)-1,3,8-triaza-spiro[4.5]dec-1-ene-8-sulfonyl]-vinyl}-phenyl)-1-methyl-urea]",107%
15,"Cc1cc(N(C)C(N)=O)cc(C)c1/C=C/S(=O)(=O)N1CCC2(CC1)N=C(c1cccc(SC(F)(F)F)c1)NC2=O [Compound 1305, 1-(3,5-dimethyl-4-{(E)-2-[4-oxo-2-(3-trifluoromethylsulfanyl-phenyl)-1,3,8-triaza-spiro[4.5]dec-1-ene-8-sulfonyl]-vinyl}-phenyl)-1-methyl-urea]",138%
16,"Cc1cc(N(C)C(N)=O)cc(C)c1CCS(=O)(=O)N1CCC2(CC1)N=C(c1cccc(SC(F)(F)F)c1)NC2=O [Compound 1306, 1-(3,5-dimethyl-4-{2-[4-oxo-2-(3-trifluoromethylsulfanyl-phenyl)-1,3,8-triaza-spiro[4.5]dec-1-ene-8-sulfonyl]-ethyl}-phenyl)-1-methyl-urea]",159%
17,"Cc1cc(N(C)C(N)=O)cc(C)c1/C=C/S(=O)(=O)N1CCC2(CC1)N=C(CCCCCCCCCCCO)NC2=O [Compound 1307, 1-(4-{(E)-2-[2-(11-hydroxy-undecyl)-4-oxo-1,3,8-triaza-spiro[4.5]dec-1-ene-8-sulfonyl]-vinyl}-3,5-dimethyl-phenyl)-1-methyl-urea]",116%
18,"Cc1cc(N(C)C(N)=O)cc(C)c1/C=C/S(=O)(=O)N1CCC2(CC1)N=C(CCCCCCCCCCCNC(=O)OC(C)(C)C)NC2=O [Compound 1308, [11-(8-{(E)-2-[2,6-dimethyl-4-(1-methyl-ureido)-phenyl]-ethenesulfonyl}-4-oxo-1,3,8-triaza-spiro[4.5]dec-1-en-2-yl)-undecyl]-carbamic acid tert-butyl ester]",102%
19,"Cc1cc(N(C)C(N)=O)cc(C)c1/C=C/S(=O)(=O)N1CCC2(CC1)N=C(CCCCCCCCCO)NC2=O [Compound 1309, 1-(4-{(E)-2-[2-(9-hydroxy-nonyl)-4-oxo-1,3,8-triaza-spiro[4.5]dec-1-ene-8-sulfonyl]-vinyl}-3,5-dimethyl-phenyl)-1-methyl-urea]",109%
20,"CC(C)=C1CCC(C2=NC3(CCN(S(=O)(=O)CCc4c(C)cc(N(C)C(N)=O)cc4C)CC3)C(=O)N2)CC1 (stereo not drawn) [Compound 1310, 1-(4-{2-[2-(4-isopropylidene-cyclohexyl)-4-oxo-1,3,8-triaza-spiro[4.5]dec-1-ene-8-sulfonyl]-ethyl}-3,5-dimethyl-phenyl)-1-methyl-urea]",104%
21,"Cc1cc(N(C)C(N)=O)cc(C)c1CCS(=O)(=O)N1CCC2(CC1)N=C(C(C)(F)F)NC2=O [Compound 1311, 1-(4-{2-[2-(1,1-difluoro-ethyl)-4-oxo-1,3,8-triaza-spiro[4.5]dec-1-ene-8-sulfonyl]-ethyl}-3,5-dimethyl-phenyl)-1-methyl-urea]",79%
22,"[2H]C([2H])([2H])N(C(N)=O)c1cc(C)c(/C=C/S(=O)(=O)N2CCC3(CC2)N=C(c2ccc(F)c(C(F)(F)F)c2)NC3=O)c(C)c1 [Compound 1312, 1-(4-{(E)-2-[2-(4-fluoro-3-trifluoromethyl-phenyl)-4-oxo-1,3,8-triaza-spiro[4.5]dec-1-ene-8-sulfonyl]-vinyl}-3,5-dimethyl-phenyl)-1-[1,1,1-^2H3]methyl-urea]",105%
23,"Cc1cc(CNC(N)=O)cc(C)c1CCS(=O)(=O)N1CCC2(CC1)N=C(C1CCC(CCC(F)(F)F)CC1)NC2=O (stereo not drawn) [Compound 1313, [3,5-Dimethyl-4-(2-{4-oxo-2-[4-(3,3,3-trifluoro-propyl)-cyclohexyl]-1,3,8-triaza-spiro[4.5]dec-1-ene-8-sulfonyl}-ethyl)-benzyl]-urea]",87%
